In publication PMC2121212 (The Journal of Experimental Medicine, 2006):
No end group written: not given here.

How the values were obtained:
[1] = tested on: CD4 T cell response; settings: in vivo response to variant when encoded in MalE (Fig. 4); ref [28]; cited from earlier work
[2] = tested on: antigen-specific T cell hybridomas stimulated by APCs that do or do not express DM; format: cell-based, murine; settings: for DM enhancement (fold DM effect): overnight, CTLL/MTT read-out
[3] = target: T1, I-A^d (Mus musculus, UniProt P01921+P04228); format: binding, murine
T1 sequence (P04228 24-111 limits assumed): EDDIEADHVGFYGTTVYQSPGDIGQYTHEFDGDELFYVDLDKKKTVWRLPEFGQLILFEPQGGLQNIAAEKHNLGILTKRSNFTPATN
T1 sequence (P01921 28-122 limits assumed): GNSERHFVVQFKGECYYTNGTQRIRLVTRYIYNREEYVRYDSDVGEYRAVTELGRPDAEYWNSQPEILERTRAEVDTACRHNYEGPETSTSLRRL

[4] = tested on: additional HEL [11–25]–specific and LACK [156–173]–specific T cell hybridomas; assay: Presentation to additional independently derived T cell hybridomas; format: cell-based, murine; settings: compared with original T cells
[5] = tested on: antigen-specific T cells stimulated by APCs that do or do not express DM; assay: Presentation from native protein versus MalE; format: cell-based, murine; settings: native protein vs MalE (Fig. S1)

T128M: high stability HA variant T128M (HNMNGVTAACSHE)
Immunogenicity of variant encoded in MalE [1]: immunogenic

T128Q: kinetic stability variant of HA [126–138] (HNQNGVTAACSHE)
DM enhancement (fold DM effect) [2]: 3.5 ± 0.7 fold | Immunogenicity of variant encoded in MalE [1]: immunogenic

T128V, S136T: kinetic stability variant of HA [126–138] (HNVNGVTAACTHE)
Immunogenicity of variant encoded in MalE [1]: cryptic

R14Q, N19A, G22S: triple substitution HEL [11–25] variant (AMKQHGLDAYRSYSL; also: fluorescein (FITC) label, position not given here)
Increase in kinetic stability [3]: threefold | DM enhancement (fold DM effect) [2]: 29.7 ± 7.6 fold | DM effect detected by additional T cell hybridomas [4]: confirmed this effect on the efficiency of presentation pattern with two additional, independently derived HEL [11–25]–specific hybridomas

HEL [11-25]: cryptic epitope derived from HEL, which has an unstable interaction with class II molecules (AMKRHGLDNYRGYSL; also: fluorescein (FITC) label, position not given here) [reference compound]
Fold more protein required on APCs expressing DM (antagonism) [2]: ~10 fold | Influence of protein context on DM-mediated presentation [5]: independent of the protein context from which the peptide epitope is derived

T128G: HA [126–138] P1 substitution (T128G) (HNGNGVTAACSHE)
Immunogenicity of variant encoded in MalE [1]: cryptic

V131A: HA [126–138] P4 substitution (V131A) (HNTNGATAACSHE)
Immunogenicity of variant encoded in MalE [1]: cryptic

HA [126–138]: derived from the influenza hemagglutinin molecule (HNTNGVTAACSHE) [reference compound]
Presentation of synthetic peptide pulsed on DM^+ vs DM^− APCs ([2]; APCs pulsed with peptide instead of protein (Fig. 1 G, H; Fig. 2 B)): equivalent | Effect of DM expression on presentation ([2]; epitope encoded within MalE, DM^+ vs DM^− APCs (Figs. 1 and 2, Table II)): modestly antagonized
